Tests used:
[1] = molecular target: Carbonic anhydrase 9 (Homo sapiens, UniProt Q16790)
Description: Inhibition of recombinant human carbonic anhydrase 9 preincubated with enzyme for 10 mins by phenol red dye based stopped flow CO2 hydration assay

[2] = molecular target: Carbonic anhydrase 2 (Homo sapiens, UniProt P00918); test: Inhibition of recombinant human carbonic anhydrase 2 preincubated with enzyme for 10 mins by phenol red dye based stopped flow CO2 hydration assay
[3] = molecular target: Carbonic anhydrase 1 (Homo sapiens, UniProt P00915); test: Inhibition of recombinant human carbonic anhydrase 1 preincubated with enzyme for 10 mins by phenol red dye based stopped flow CO2 hydration assay
Chain of Carbonic anhydrase 1 (P00915 whole entry): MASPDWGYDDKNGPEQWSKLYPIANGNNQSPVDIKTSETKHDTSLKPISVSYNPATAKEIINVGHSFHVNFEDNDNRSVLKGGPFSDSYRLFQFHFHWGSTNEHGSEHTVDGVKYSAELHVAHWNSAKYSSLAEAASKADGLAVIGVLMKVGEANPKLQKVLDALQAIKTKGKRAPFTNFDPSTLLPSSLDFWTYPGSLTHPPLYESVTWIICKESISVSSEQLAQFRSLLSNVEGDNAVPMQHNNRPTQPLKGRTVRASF

SMILES | Ki [1] | Ki [2] | Ki [3]
NS(=O)(=O)c1ccc(-c2ccc(C(O)c3cccc(C(=O)O)c3)cc2)cc1 (stereo not drawn) | 88.4 nM | 0.83 nM | 6.9 nM
NS(=O)(=O)c1ccc(-c2ccc(C3OC(=O)c4ccccc43)cc2)cc1 (stereo not drawn) | 249 nM | 0.7 nM | 80.1 nM
Nc1ccccc1C(O)c1ccc(-c2ccc(S(N)(=O)=O)cc2)cc1 (stereo not drawn) | 92 nM | 0.97 nM | 8.4 nM
Nc1cccc(Cc2ccc(-c3ccc(S(N)(=O)=O)cc3)cc2)c1 | 556 nM | 0.92 nM | 5.9 nM
Nc1cccc(C(O)c2ccc(-c3ccc(S(N)(=O)=O)cc3)cc2)c1 (stereo not drawn) | 464 nM | 0.78 nM | 33.1 nM
NS(=O)(=O)c1ccc(-c2ccc(C(=O)c3cccc(C(=O)O)c3)cc2)cc1 | 491 nM | 0.94 nM | 7.3 nM
Nc1cccc(C(=O)c2ccc(-c3ccc(S(N)(=O)=O)cc3)cc2)c1 | 266 nM | 9.8 nM | 87.3 nM

More lines, now with the values ahead:

Ki [1] | Ki [2] | Ki [3] | SMILES
469 nM | 0.83 nM | 39.4 nM | NS(=O)(=O)c1ccc(-c2ccc(C(=O)c3ccccc3C(=O)O)cc2)cc1
437 nM | 0.69 nM | 6.8 nM | NS(=O)(=O)c1ccc(-c2ccc(Cc3ccccc3C(=O)O)cc2)cc1
323 nM | 0.57 nM | 21.3 nM | NS(=O)(=O)c1ccc(-c2ccc(Cc3cccc(C(=O)O)c3)cc2)cc1
289 nM | 31 nM | 218 nM | Nc1ccccc1C(=O)c1ccc(-c2ccc(S(N)(=O)=O)cc2)cc1
